Series [1] can be described thus: Oral pharmacokinetic study in rats. It is filed as in vivo, Male Wistar rats.
The subject of the next series is p53. Put plainly: p53 by ELISA in MCF-7 cells. The note with it: OLA 10 µgmL^−1, vs untreated control. It is filed as cell-based, human. How it is done: (§1) The p53, Caspase-3 and Caspase-9 activities were measured by ELISA kits following the manufacture’s protocol and reported works. The MCF-7 cells (5 × 10^4 cells/well) were seeded in 96-well plates. The seeded cells were treated with the AqS of OLA-pure and OLA-NCs. The concentration of OLA was kept 10 µgmL^−1, which was approximately near to the IC50 value of the OLA-NCs-2 (9.71 µgmL^−1). The untreated cells were served as control. All the treated cells were allowed to equilibrate at ambient temperature. Approximately 100 µL of p53, Caspase-3 and Caspase-9 reagents were transferred into the respective wells of the plate containing 100 µL of culture media. The plates were covered and stirred for 1–2 min at 500 rpm and then incubated at ambient temperature. After 1 h of incubation the OD was measured at 405 nm wavelength by microplate reader.
Background: In an ELISA, binding on a coated surface is turned into a signal by an enzyme label.

The next series deals with Caspase-9. Nature of the series: Caspase-9 by ELISA in MCF-7 cells. Format: cell-based, human. The note with it: OLA 10 µgmL^−1, vs untreated control. How it is done: as §1
The test system of the next series is P-glycoprotein (Pgp). Further details: method as in PMID 24700236. The note with it: cited from earlier work.
A further series has as its system Caspase-3. Nature of the series: Caspase-3 by ELISA in MCF-7 cells. Format: cell-based, human. The note with it: OLA 10 µgmL^−1, vs untreated control. How it is done: as §1
Series [2] is described as follows: Saturation solubility of pure OLA and its NCs. Format: physicochemical. The note with it: thermodynamic from solid. How it is done:
The excess amount of pure OLA and NCs in triplicate were added into 1 mL of each solvent in glass vials. The mixtures were vortexed for 30 s and put into an orbital shaking (at 100 stroke per min) water bath (Julabo®, Allentown, PA, USA) maintained at 37 ± 1 °C for 72 h. Thereafter, vials were taken out and kept at room temperature for 24 h to settle down the undissolved drugs. Then, the supernatants were collected, filtered by 0.45 µ filtration unit (Millipore, Molsheim, France), diluted (if needed) and 30 µL was injected into HPLC-UV system for the quantification of the dissolved drugs.

Details of series [3]: method as in PMID 24700236. As to conditions: cited from earlier work.
Series [4] can be described thus: Oral pharmacokinetic study in rats. Format: in vivo, Male Wistar rats. The procedure:
Male Wistar rats were used for this study. The Standing Committee of Bioethics Research (SCBR) at Prince Sattam bin Abdulaziz University, Deanship of Scientific Research has granted the animal ethical approval (SCBR-030-2022) for in vivo studies on rats. Twelve rats were divided in two groups. Group-1 for OLA-AqS and Group-II for OLA-NCs. Each animal of the respective groups received OLA-AqS and OLA-NCs individually. Oral route was selected for the administration of all OLA formulations at 25 mg·kg^−1 of body weight equivalent dose of OLA was given orally to all animals. At predetermined time points (0.25, 0.5, 1, 3, 6 and 9 h) approximately 0.5 mL of blood was aspirated through retro orbital plexus from each animal. The samples were collected in heparinized tubes and centrifuged at 6000 rpm for 10 min and at 4 °C to obtain the plasma. Approximately 200 µL supernatant (plasma) was collected and stored at −80 °C till analysis was performed.
Previously reported RP-HPLC method was used for the analysis of OLA in the plasma samples [7, 20]. In brief, the HPLC system (Waters® 1500 Series, Milford, MA, USA) was fitted out with UV-dual absorbance detector (Waters® Model-2489), Binary pump (Waters® Moel-1525), Autosampler (Waters® Model-2707 plus). The HPLC-UV system was monitored and controlled by the “Breeze software”. A C18 Waters symmetry column (150 × 4.6 mm, 5 µm, particle size) was used for the elution of OLA and Paclitaxel (used as internal standard, IS). The mobile phase composed of ammonium acetate buffer (pH was adjusted to 3.5 by Orthophosphoric acid) and Methanol at 50:50 (v/v) was pumped at isocratic mode at the flow rate of 1 mL·min^−1. The UV-detection wavelength was 254 nm (for OLA) and 230 nm (for IS). The column heater temperature was set to 35 °C and the volume of injection was 30 µL.
Protein precipitation method (simple with high recovery) was used for the drug extraction from the collected plasma samples. The calibration curve samples were prepared by pipetting 50 μL of working stock solution of OLA (in methanol) and 20 μL of IS (20 µg/mL) into 140 μL of plasma and the mixture was vortexed for 30 s. Acetonitrile (290 μL) was added into the obtained mixture for protein precipitation, vortexed for 2 min and then centrifuged at 13,500 rpm for 10 min. Approximately 200 µL of the supernatant was collected and 30 µL of the supernatant was injected into HPLC system for the quantification of the drugs in the samples.
The results were represented as mean with standard deviation (± SD), unless otherwise indicated. The statistical analysis was performed using GraphPad Prism: Version-5.1 (GraphPad Software, Inc., San Diego, CA, USA). The pharmacokinetics parameters was calculated by “PK-Solver Software, Nanjing, China using MS-Excel-2013” through the non-compartmental approach. The comparative analysis of the data was accomplished by Student’s t-test and p < 0.05 was considered as statistically significant, unless otherwise indicated.
This is another data set of the same source.

For a further series, the system named is MCF-7 cells. Put plainly: MTT or cell proliferation assay. It is filed as cell-based. The note with it: Homo sapiens, MCF7, 48 h, 48 h of incubation, MTT. How it is done:
The MCF-7 cells were procured from the American Type Cutler Collection (Manassas, VA, USA). Cells were grown in 50 cm^2 tissue culture flasks using “Dulbecco’s Modified Eagle Medium (DMEM) (UFC Biotech, Riyadh, Saudi Arabia)” at 37 °C in an incubator humidified by 5% CO2. The media was accompanied with 10% fetal bovine serum (Alpha Chemika, Mumbai, India), 1% mixture of Penicillin (100 units·mL^−1): Streptomycin (100 µg·mL^−1) by ThermoFischer Scientific, Waltham, MA, USA, Amphotericin-B (250 ngmL^−1) by Gibco® (Grand Island, NY, USA) and 1% of L-glutamine (BioWest, Riverside, MO, USA). The MTT was purchased from Sigma Aldrich, St. Louis, MO, USA. […]
The anticancer activity of pure drug (OLA)-AqS and OLA-NCs-2 against MCF-7 were examined by assessing the viability of the treated cells by MTT assay. […] The assay was done by observing the enzymatic reduction of a water-soluble dye [3-(4,5-dimethylthiazol-2-yl)-2,5-diphenyltetrazolium bromide] into an insoluble formazan, where the quantitation of formazan designates the relative viability of the cells. […] Optical density (OD) was measured at 570 nm using the spectrophotometric microplate reader (Synergy HT, BioTek Instruments, Winooskim, VT, USA). The cell viability (%) was calculated by Equation (4). […] The IC50 values were calculated as Log (inhibitor) versus normalized response on variable slopes through GraphPad Prism V-5.1. […]

Setting [5] is: male, Wistar, rat, plasma, single oral dose 25 mg·kg^−1.

≈ marks a conversion by molar mass, not a printed value. Some results are limits rather than exact numbers.

With `O=C(c1cc(Cc2n[nH]c(=O)c3ccccc23)ccc1F)N1CCN(C(=O)C2CC2)CC1` [OLA, Olaparib], in series [1] (male, Wistar, rat, plasma, single oral dose 25 mg·kg^−1, read-out: AUC0–12 h), the AUC(0-t) worked out at 882 ± 137 ng·h/mL. The “Last plasma sample in which the drug was detected” value in series [1] (oral, undetected in 10 h and 12 h samples) is “up to 8 h”. In the series with p53, the “p53 protein expression, times higher than control” value came to 7.2 times. The “Increased expression of Caspase-9 vs control” value with Caspase-9 was roughly 2 folds. For the same molecule, the “Concentration at which the Pgp-mediated efflux is saturated” value with P-glycoprotein (Pgp) was greater than 260 µM. The “Increased activities of Caspase-3 vs control” value in the series with Caspase-3 is “approximately 4.3 folds”. Further, the solubility is 31.1 ± 3.9 µg/mL (≈ 71.6 µM) in series [2] (0.1N HCl with 0.5% Soluplus, 37 °C, aqueous with cosolvent or surfactant or cyclodextrin, in 0.1N HCl (pH 1.2) with 0.5% Soluplus); 12.7 ± 3.9 µg/mL (≈ 29.2 µM) in series [2] (0.1N HCl with 0.5% Tween-80, 37 °C, aqueous with cosolvent or surfactant or cyclodextrin, in 0.1N HCl (pH 1.2) with 0.5% Tween-80); 7.1 ± 2.7 µg/mL (≈ 16.3 µM) in series [2] (37 °C, simulated gastric fluid, in 0.1N HCl (pH 1.2)). The solubility at 72 h in series [2] (phosphate buffer (PBS) with 0.5% Soluplus, pH 7.4, aqueous with cosolvent or surfactant or cyclodextrin, in PBS with 0.5% Soluplus, 37 °C) worked out at 35.6 ± 7.2 µg/mL (≈ 81.9 µM); in [2] (phosphate buffer (PBS) with 0.5% Tween-80, pH 7.4, aqueous with cosolvent or surfactant or cyclodextrin, in PBS with 0.5% Tween-80, 37 °C), 14.2 ± 5.1 µg/mL (≈ 32.7 µM); in [2] (phosphate buffer (PBS), pH 7.4, aqueous buffer, in PBS, 37 °C), 9.3 ± 2.4 µg/mL (≈ 21.4 µM). In addition, in series [3], the “Solubility at intestinal fluid pH” value is listed as 0.16 mg·mL^−1. This molecule also registered an AUC(0-inf) in series [4] (setting [5]) of 913 ± 138 ng·h/mL. Besides, in [4] (setting [5]), the Tmax came to 2 h. The same molecule had a half-life in [4] (setting [5]) of 1.36 ± 0.04 h. Moreover, the MRT inf in series [4] (male, Wistar, rat, plasma, single oral dose 25 mg·kg^−1, read-out: MRT0-∞) is 3.37 ± 0.03 h. The molecule also yielded a Cmax in series [4] (male, Wistar, rat, single oral dose 25 mg·kg^−1, plasma) of 278 ± 46.5 ng/mL. Moreover, the “AUMC0-∞” value in series [4] (single oral dose 25 mg·kg^−1) is reported as 3081.17 ± 471.32 ng·mL^−1·h^2. Moreover, the Cl/F in series [4] (single oral dose 25 mg·kg^−1, listed as OLA-Pure) came out at 6.94 ± 0.96 L/h; in [4] (single oral dose 25 mg·kg^−1, listed as OLA-pure), 6.94 L/h. Moreover, the half-inhibitory concentration (IC50) in the series with MCF-7 cells came out at 28.4 µg/mL.

As a reminder, the solubility is how much of the substance goes into solution per volume. Lower therefore signals little dissolved substance. Broadly, the Solubility is the dissolved amount per volume that the medium holds. One may read the AUC(0-inf) as total exposure, with the tail of the curve extrapolated. Read a high AUC(0-inf) as more exposure. What is called Tmax is the time from dosing to the highest level. In general, half-life refers to the time in which the quantity being followed falls by half. Higher therefore signals slow loss. The Cmax is the peak of the concentration-time curve. One may read the IC50 as the concentration needed to halve the response being measured.

The values are drawn from article PMC9696361, “Nanocrystallization Improves the Solubilization and Cytotoxic Effect of a Poly (ADP-Ribose)-Polymerase-I Inhibitor” (Polymers, 2022).
